Each structure is given as a SMILES string. Numbers after ± are expanded uncertainties.

The conditions of this series: Crystal; visual observation.

As to `CC1=CC(=O)[N-]S(=O)(=O)O1.[K+]` [acesulfame potassium], the Normal melting temperature was 229.00 ± 1 °C.

The values are drawn from the NIST ThermoML archive (doi:10.1021/je700713q).
